Converted amounts (≈) assume the structure as drawn.
Legend:
[1] = biological target: T1, Somatostatin receptor type 5 (Homo sapiens, UniProt P35346); test: Displacement of [125I]11-Tyr somatostatin-14 from human SST5R expressed in CHO cells; assay type: cell-based
[2] = biological target: Somatostatin receptor type 1 (Homo sapiens, UniProt P30872); test: Binding affinity to human SST1R
[3] = biological target: Somatostatin receptor type 2 (Homo sapiens, UniProt P30874); test: Binding affinity to human SST2R
Somatostatin receptor type 2, sequence (P30874 whole entry): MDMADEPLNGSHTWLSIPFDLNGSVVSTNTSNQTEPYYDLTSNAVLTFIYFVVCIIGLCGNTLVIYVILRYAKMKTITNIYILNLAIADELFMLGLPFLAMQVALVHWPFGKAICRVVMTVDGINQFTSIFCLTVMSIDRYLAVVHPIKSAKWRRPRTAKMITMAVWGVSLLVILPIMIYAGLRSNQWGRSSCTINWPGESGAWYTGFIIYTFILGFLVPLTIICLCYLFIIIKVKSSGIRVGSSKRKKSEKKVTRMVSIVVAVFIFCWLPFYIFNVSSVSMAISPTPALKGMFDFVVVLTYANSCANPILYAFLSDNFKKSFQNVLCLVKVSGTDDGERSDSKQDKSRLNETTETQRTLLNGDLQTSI

[4] = biological target: Somatostatin receptor type 4 (Homo sapiens, UniProt P31391); test: Binding affinity to human SST4R
Somatostatin receptor type 4, sequence (P31391 whole entry): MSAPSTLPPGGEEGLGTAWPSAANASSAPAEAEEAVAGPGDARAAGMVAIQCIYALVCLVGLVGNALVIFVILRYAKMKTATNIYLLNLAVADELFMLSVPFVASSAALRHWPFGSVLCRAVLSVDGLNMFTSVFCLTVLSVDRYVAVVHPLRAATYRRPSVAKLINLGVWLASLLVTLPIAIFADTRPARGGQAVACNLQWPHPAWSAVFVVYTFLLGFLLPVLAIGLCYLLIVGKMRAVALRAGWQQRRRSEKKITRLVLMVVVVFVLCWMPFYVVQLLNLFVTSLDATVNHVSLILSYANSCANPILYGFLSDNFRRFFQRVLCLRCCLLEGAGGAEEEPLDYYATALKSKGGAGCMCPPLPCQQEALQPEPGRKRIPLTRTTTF

[5] = biological target: Somatostatin receptor type 3 (Homo sapiens, UniProt P32745); test: Binding affinity to human SST3R
Somatostatin receptor type 3, sequence (P32745 whole entry): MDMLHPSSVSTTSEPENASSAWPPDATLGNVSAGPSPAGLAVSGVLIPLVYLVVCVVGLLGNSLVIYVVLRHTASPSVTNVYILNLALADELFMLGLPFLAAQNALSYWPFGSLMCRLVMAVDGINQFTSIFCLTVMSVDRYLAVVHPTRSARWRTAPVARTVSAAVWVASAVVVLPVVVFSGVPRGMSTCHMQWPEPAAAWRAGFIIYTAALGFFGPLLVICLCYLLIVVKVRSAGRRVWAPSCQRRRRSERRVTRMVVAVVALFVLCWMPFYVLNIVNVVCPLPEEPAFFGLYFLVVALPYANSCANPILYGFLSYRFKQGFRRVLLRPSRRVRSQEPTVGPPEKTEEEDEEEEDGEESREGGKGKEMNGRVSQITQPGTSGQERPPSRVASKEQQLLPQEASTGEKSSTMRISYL

[6] = Passive membrane permeability by PAMPA; assay type: ADME; details: read-out: permeability
[7] = biological target: Voltage-gated inwardly rectifying potassium channel KCNH2 (Homo sapiens, UniProt Q12809); test: Inhibition of hERG channel; assay type: toxicity
Voltage-gated inwardly rectifying potassium channel KCNH2, sequence (Q12809 whole entry): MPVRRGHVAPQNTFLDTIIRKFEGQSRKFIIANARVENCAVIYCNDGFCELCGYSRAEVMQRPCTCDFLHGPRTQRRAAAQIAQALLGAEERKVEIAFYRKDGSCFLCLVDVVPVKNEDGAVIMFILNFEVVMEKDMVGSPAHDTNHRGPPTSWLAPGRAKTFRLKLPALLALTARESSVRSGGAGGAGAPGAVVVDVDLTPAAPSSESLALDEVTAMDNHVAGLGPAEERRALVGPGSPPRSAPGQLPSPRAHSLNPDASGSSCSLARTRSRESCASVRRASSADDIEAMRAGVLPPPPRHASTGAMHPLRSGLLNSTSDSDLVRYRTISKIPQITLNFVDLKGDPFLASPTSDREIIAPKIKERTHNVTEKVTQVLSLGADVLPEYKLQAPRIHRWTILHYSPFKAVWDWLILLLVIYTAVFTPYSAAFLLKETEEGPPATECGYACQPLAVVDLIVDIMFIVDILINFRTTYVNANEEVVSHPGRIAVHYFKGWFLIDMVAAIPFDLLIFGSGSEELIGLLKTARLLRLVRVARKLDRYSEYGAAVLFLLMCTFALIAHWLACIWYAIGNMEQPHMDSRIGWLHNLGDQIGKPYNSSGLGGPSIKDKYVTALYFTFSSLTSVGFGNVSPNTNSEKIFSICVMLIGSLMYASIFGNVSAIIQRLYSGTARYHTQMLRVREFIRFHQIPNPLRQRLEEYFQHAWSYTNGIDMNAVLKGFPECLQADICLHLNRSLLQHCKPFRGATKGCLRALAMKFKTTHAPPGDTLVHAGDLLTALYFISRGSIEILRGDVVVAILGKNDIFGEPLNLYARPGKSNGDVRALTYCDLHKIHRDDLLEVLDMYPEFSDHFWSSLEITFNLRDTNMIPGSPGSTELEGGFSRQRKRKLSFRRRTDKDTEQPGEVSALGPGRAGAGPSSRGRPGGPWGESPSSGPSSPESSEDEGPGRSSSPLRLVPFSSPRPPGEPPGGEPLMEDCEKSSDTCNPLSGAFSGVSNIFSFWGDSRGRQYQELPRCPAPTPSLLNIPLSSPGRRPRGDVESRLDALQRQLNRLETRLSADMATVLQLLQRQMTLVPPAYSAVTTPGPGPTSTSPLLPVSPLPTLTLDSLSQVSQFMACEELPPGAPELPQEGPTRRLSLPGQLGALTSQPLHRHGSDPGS

[8] = Solubility at pH 6.5 by lyophilisation solubility assay; assay type: physicochemical; details: buffer
Histamine H1 receptor = Histamine H1 receptor (Homo sapiens, UniProt P35367); test: Binding affinity to histamine H1 receptor
Histamine H1 receptor, sequence (P35367 whole entry): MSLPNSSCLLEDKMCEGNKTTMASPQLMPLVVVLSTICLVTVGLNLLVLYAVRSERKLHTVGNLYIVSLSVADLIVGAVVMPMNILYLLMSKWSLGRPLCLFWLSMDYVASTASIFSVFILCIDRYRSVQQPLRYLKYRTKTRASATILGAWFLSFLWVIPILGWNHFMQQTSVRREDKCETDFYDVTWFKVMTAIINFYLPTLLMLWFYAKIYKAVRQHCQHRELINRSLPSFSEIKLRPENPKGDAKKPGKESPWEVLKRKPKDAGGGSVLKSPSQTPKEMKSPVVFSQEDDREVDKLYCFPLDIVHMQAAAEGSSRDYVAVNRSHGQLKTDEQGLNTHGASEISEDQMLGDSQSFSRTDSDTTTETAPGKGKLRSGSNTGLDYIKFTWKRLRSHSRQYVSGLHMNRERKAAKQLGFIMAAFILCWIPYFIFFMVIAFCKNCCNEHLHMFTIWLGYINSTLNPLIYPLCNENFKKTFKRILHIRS

[9] = Distribution coefficient, log D at pH 7.4; assay type: physicochemical; details: octanol/water
[10] = biological target: T1, Somatostatin receptor type 5; test: Antagonist activity at human SST5R expressed in CHO cells assessed as reversal of somatostatin-14 induced cAMP response; assay type: functional, cell-based

T1 sequence (P35346 whole entry): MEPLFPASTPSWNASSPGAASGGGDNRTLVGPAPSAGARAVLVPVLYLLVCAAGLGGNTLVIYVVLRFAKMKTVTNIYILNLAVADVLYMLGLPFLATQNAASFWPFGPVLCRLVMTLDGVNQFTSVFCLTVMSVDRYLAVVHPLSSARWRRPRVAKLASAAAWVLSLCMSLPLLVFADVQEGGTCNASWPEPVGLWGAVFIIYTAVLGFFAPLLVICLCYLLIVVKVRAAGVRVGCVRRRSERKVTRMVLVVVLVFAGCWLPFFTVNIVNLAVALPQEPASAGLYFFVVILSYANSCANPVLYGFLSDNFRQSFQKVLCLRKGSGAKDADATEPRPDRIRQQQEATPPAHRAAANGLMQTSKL
Somatostatin receptor type 1, sequence (P30872 whole entry): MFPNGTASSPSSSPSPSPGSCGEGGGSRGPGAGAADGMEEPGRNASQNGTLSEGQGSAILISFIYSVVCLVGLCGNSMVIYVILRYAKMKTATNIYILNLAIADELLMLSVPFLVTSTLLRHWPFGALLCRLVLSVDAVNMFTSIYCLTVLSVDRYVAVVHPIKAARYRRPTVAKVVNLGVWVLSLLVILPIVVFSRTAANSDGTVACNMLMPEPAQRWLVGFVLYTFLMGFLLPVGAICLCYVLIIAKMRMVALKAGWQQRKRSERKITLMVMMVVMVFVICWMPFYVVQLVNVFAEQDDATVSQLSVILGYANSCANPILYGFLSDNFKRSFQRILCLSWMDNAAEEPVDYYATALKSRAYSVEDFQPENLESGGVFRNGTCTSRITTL

Which Ki [1] does the source give for `COc1ccc(CN2CCC(Nc3nc4ccccc4s3)CC2)cc1OC` here?
The Ki was 1790 nM.

For `Cc1cccc2c(CN3CCC(Nc4nc5ccccc5n4Cc4ccc(F)cc4)CC3)c[nH]c12`, which Ki [1] is on record?
Its Ki is 1440 nM.

Which Ki [1] does the source give for `Fc1ccc(Cn2c(NC3CCN(CCc4ccccc4)CC3)nc3ccccc32)cc1` here?
Its Ki is 5000 nM.

Which Ki [1] does the source give for `CCCOc1cc(CN2CCC(Nc3nc4ccccc4o3)CC2)ccc1OC` here?
The Ki was 293 nM.

With `Fc1ccc(Cn2c(NC3CCN(Cc4ccc5c(c4)CCO5)CC3)nc3ccccc32)cc1` as the molecule, how does the Ki [1] read?
The Ki was 1630 nM.

Which Ki [1] does the source give for `CCOc1cc(CN2CCC(Nc3nc4ccccc4s3)CC2)ccc1OC` here?
The Ki was 326 nM.

For `CCOc1cc(CN2CCC(Nc3nc4ccccc4s3)CC2)ccc1O`, which Ki [1] is on record?
Its Ki is 149 nM.

For `CCOc1cc(CN2CCC(Nc3nc4cc(S(N)(=O)=O)ccc4o3)CC2)cc(OCC)c1N`, which Ki [2] is on record?
Its Ki is greater than 10000 nM.

And the Ki [3]?
Its Ki is greater than 10000 nM.

What about the Ki [4] of the same molecule?
The Ki was greater than 10000 nM.

What about the Ki [1] of the same molecule?
The Ki was 13 nM.

What about the Ki [5] of the same molecule?
The Ki was greater than 10000 nM.

Which Papp [6] does the source give for `CCOc1cc(CN2CCC(Nc3nc4ccccc4o3)CC2)ccc1OC` here?
The Papp was 4.44 ×10⁻⁶ cm/s.

And the IC50 [7]?
Its IC50 is less than 100 nM.

What about the solubility [8] of the same molecule?
The solubility was 130 µg/mL (≈ 341 µM).

What about the Ki (Histamine H1 receptor) of the same molecule?
Its Ki is 624 nM.

And the Ki [1]?
The Ki was 121 nM.

And the logD [9]?
Its logD is 2.92.

What about the IC50 [10] of the same molecule?
Its IC50 is 740 nM.

For `CCOc1cc(CN2CCC(Nc3nc4ccccc4o3)CC2)ccc1OC(F)(F)F`, which Ki [1] is on record?
Its Ki is 524 nM.

For `COc1cc(CN2CCC(Nc3nc4ccccc4o3)CC2)c(OC)c2ccccc12`, which Ki [1] is on record?
Its Ki is 794 nM.

Which Ki [1] does the source give for `Fc1ccc(Cn2c(NC3CCN(Cc4ccc5[nH]ccc5c4)CC3)nc3ccccc32)cc1` here?
Its Ki is 3950 nM.

For `Fc1ccc(Cn2c(NC3CCN(CCCc4ccccc4)CC3)nc3ccccc32)cc1`, which Ki [1] is on record?
The Ki was greater than 10000 nM.

For `Fc1ccc(CCN2CCC(Nc3nc4ccccc4n3Cc3ccc(F)cc3)CC2)cc1`, which Ki [1] is on record?
Its Ki is greater than 10000 nM.

For `Fc1ccc(Cn2c(NC3CCN(CCc4ccc(OC(F)(F)F)cc4)CC3)nc3ccccc32)cc1`, which Ki [1] is on record?
Its Ki is greater than 10000 nM.

Which Ki [1] does the source give for `COc1cc(CN2CCC(Nc3nc4ccccc4s3)CC2)ccc1O` here?
Its Ki is 5130 nM.

With `CCOc1cc(CN2CCC(Nc3nc4ccccc4o3)CC2)ccc1O` as the molecule, how does the Ki [1] read?
Its Ki is 66 nM.

Which Ki [1] does the source give for `CCOc1cc(CN2CCC(Nc3nc4ccccc4o3)CC2)ccc1C` here?
The Ki was 37 nM.

Which Ki [1] does the source give for `Fc1ccc(Cn2c(NC3CCN(CC4CCc5ccccc5C4)CC3)nc3ccccc32)cc1` (stereo unspecified) here?
Its Ki is greater than 10000 nM.

With `COc1ccc(CCN2CCC(Nc3nc4ccccc4n3Cc3ccc(F)cc3)CC2)cc1` [ASTEMIZOLE] as the molecule, how does the Ki [1] read?
Its Ki is 4070 nM.

For `COc1ccc(CN2CCC(Nc3nc4ccccc4o3)CC2)cc1OCC(C)C`, which Ki [1] is on record?
The Ki was 23 nM.

With `Fc1ccc(Cn2c(NC3CCN(Cc4ccccc4)CC3)nc3ccccc32)cc1` as the molecule, how does the Ki [1] read?
Its Ki is 6120 nM.

What does the source list for `CCOc1cc(CN2CCC(Nc3nc4cc(S(N)(=O)=O)ccc4o3)CC2)ccc1OC`?
IC50 [7]: 3500 nM; Ki [1]: 185 nM

For `COc1ccc(CN2CCC(Nc3nc4ccccc4o3)CC2)cc1OC1CCCC1`, which Ki [1] is on record?
Its Ki is 83 nM.

With `CCOc1cc(CN2CCC(Nc3nc4ccccc4o3)CC2)ccc1F` as the molecule, how does the Ki [1] read?
Its Ki is 194 nM.

With `CCOc1cc(CN2CCC(Nc3nc4ccccc4o3)CC2)ccc1Cl` as the molecule, how does the Ki [1] read?
The Ki was 113 nM.

With `COc1ccc(CN2CCC(Nc3nc4ccccc4n3Cc3ccc(F)cc3)CC2)cc1` as the molecule, how does the Ki [1] read?
The Ki was 3950 nM.

For `CCOc1cc(CN2CCC(Nc3nc4cc(S(N)(=O)=O)ccc4o3)CC2)ccc1Cl`, which Ki [1] is on record?
The Ki was 17 nM.

With `COc1cc(CN2CCC(Nc3nc4ccccc4n3Cc3ccc(F)cc3)CC2)c(OC)c2ccccc12` as the molecule, how does the Ki [1] read?
The Ki was 1230 nM.

Which Ki [1] does the source give for `COc1cc(CN2CCC(Nc3nc4ccccc4s3)CC2)c(OC)c2ccccc12` here?
The Ki was 683 nM.

— ChEMBL document CHEMBL1138333, “Discovery of the first nonpeptidic, small-molecule, highly selective somatostatin receptor subtype 5 antagonists: a chemogenomics approach” (J Med Chem, 2007)
